Entries after “also recorded” stand apart in the source; their conditions may differ. Read-outs that look alike come from different tables or passages of the source.
Tests used:
[1] = tested on: cardiac tissue; conditions: cited from earlier work; for effect on conduction: known drugs
[2] = tested on: cardiovascular function; conditions: cited from earlier work; for depression of cardiac function: Class I drugs; for cardiovascular / hemodynamic depression in vivo: doses approximating the therapeutic dose
[3] = local anesthetic action; conditions: doses up to 50-100 times the concentration which prolongs action potential duration by 20%
[4] = tested on: cardiovascular function; assay: cardiovascular / hemodynamic depression in vivo; conditions: doses 10 to 30 times the therapeutic dose (1-3 mg/kg)
[5] = tested on: ganglionic and vagal transmission; assay: effects on ganglionic and vagal transmission; assay type: in vivo; conditions: doses up to 10 mg/kg (i.e., 3-10 times the effective dose)
[6] = tested on: cardiac tissue; assay: conduction and refractoriness in the cardiac tissue
[7] = tested on: re-entrant ventricular tachycardia; assay: model of re-entrant ventricular tachycardia in dogs; assay type: in vivo, dog; conditions: anesthetized dogs; times more potent than acecainide
[8] = tested on: canine cardiac Purkinje fibers; assay: action potential duration and upstroke by standard electrophysiological techniques in normal canine Purkinje fibres; assay type: cell-based
From the text: The action of the compounds of this invention is attributed to their ability to prolong the action potential of the cardiac tissue. Therefore, they are Class III antiarrhythmic agents within the Vaughan-Williams classification of antiarrhythmic agents. Such activity has been analyzed in several procedures, for instance, utilizing standard electrophysiological techniques to measure resting potential, action potential amplitude, duration, rate of rise and refractory periods of normal canine Purkinje fibres; and also utilizing re-entrant arrhythmias induced by programmed electrical stimulation in the conscious dog.

[9] = tested on: arrhythmia; assay: therapeutic dose; conditions: in vivo
[10] = tested on: arrhythmia; conditions: cited from earlier work
[11] = tested on: man; conditions: cited from earlier work; for drug induced lupus erythematosis: in man
[12] = cited from earlier work
[13] = tested on: bacteria (Ames Test)
[14] = tested on: cardiac action potential; conditions: in vitro; Goodman & Gilman, 6th Ed., 1980, pg. 768; cited from earlier work
[15] = tested on: ganglionic and vagal transmission; conditions: in vivo; literature; cited from earlier work

Compound	effect on conduction [1]	depression of cardiac function [2]	local anesthetic action [3]	cardiovascular depression in vivo [4]	effects on ganglionic or vagal transmission [5]	conduction disturbances in the heart / effect on conduction [6]	potency relative to acecainide in a model of re-entrant ventricular tachycardia [7]	effect on action potential duration [8]	effect on action potential upstroke [8]	therapeutic dose [9]	drug induced lupus erythematosis [11]	cardiovascular / hemodynamic depression in vivo [2]	also measured
C=C[C@H]1C[N@@]2CC[C@H]1C[C@@H]2[C@@H](O)c1ccnc2ccc(OC)cc12 [quinidine]	slowing conduction	depress cardiac function											
CCCCCCCNCCNC(=O)c1ccc(NS(C)(=O)=O)cc1.Cl [N-[2-(Heptylamino)ethyl]-4-[(methylsulfonyl)amino]benzamide hydrochloride]			No local anesthetic action	no evidence for cardiovascular depression	nor is there any evidence for effects on ganglionic or vagal transmission	no conduction disturbances in the heart	10 times	prolong action potential duration	without slowing the action potential upstroke (it may be increased)	1 to 3 mg/kg			
CCN(CC)CCNC(=O)c1ccc(NC(C)=O)cc1 [acecainide]	little effect on conduction of the cardiac action potential										shown to cause lupus	causes such depression at doses approximating the therapeutic dose	prolongation of refractoriness ([1]; known drug): does prolong refractoriness; antiarrhythmic activity ([10]; reported): antiarrhythmic activity; incidence of lupus relative to procainamide ([11]; versus procainamide): significantly lower than for procainamide; deacetylation in man [12]: deacetylated in man; mutagenic activity relative to procainamide (Ames Test) [13]: one-half as active
CCN(CC)CCNC(=O)c1ccc(N)cc1 [procainamide]	slowing conduction	depress cardiac function									drug induced lupus erythematosis	causes cardiovascular depression; also recorded: causes such depression at doses approximating the therapeutic dose	therapeutic dose ([10]; in vivo, literature): 20 to 40 mg/kg; effect on action potential duration [14]: prolongs action potential duration; effect on action potential upstroke [14]: slows action potential upstroke; level showing significant mutagenic potential (Ames Test) [13]: ≤ 0.2 mg/plate; ganglionic and vagal transmission [15]: blocks ganglionic and vagal transmission
CS(=O)(=O)Nc1ccc(C(=O)NCCNCc2ccccc2)cc1.Cl [4-[(Methylsulfonyl)amino]-N-[2-((phenylmethyl)amino)ethyl]benzamide hydrochloride]			No local anesthetic action	no evidence for cardiovascular depression	nor is there any evidence for effects on ganglionic or vagal transmission	no conduction disturbances in the heart	10 times	prolong action potential duration	without slowing the action potential upstroke (it may be increased)	1 to 3 mg/kg			
CC(C)N(CCC(C(N)=O)(c1ccccc1)c1ccccn1)C(C)C (stereo not shown) [disopyramide]	slowing conduction	depress cardiac function											
